This is an account of results in patent publication US20070213396A1, “Active Substance Combinations Having Insecticidal Properties” (BAYER CROPSCIENCE AG, priority 2004, published 2007).

SMILES strings stand for the structures. “And” between values parts separate entries of the source, which are not always exact repeats. Equal values may be shown once.

Holding throughout (assay type): in vivo
Holding throughout (details): single active compound

Experiment [1] has as its system caterpillars of the cotton bollworm (Heliothis armigera). The experiment in a line: Heliothis armigera test (cabbage leaf dip). The source says:
(§1) The expected action for a given combination of two active compounds can be calculated as follows, according to S. R. Colby, Weeds 15 (1967), 20-22: • If • X is the kill rate, expressed as a percentage of the untreated control, when employing active compound A at an application rate of m g/ha or in a concentration of m ppm, • Y is the kill rate, expressed as a percentage of the untreated control, when employing active compound B at an application rate of n g/ha or in a concentration of n ppm and • E is the kill rate, expressed as a percentage of the untreated control, when employing active compounds A and B at application rates of m and n g/ha or in a concentration of m and n ppm, • then [formula] If the actual insecticidal kill rate exceeds the calculated value, the kill of the combination is superadditive, i.e. a synergistic effect is present. In this case, the actually observed kill rate must exceed the value calculated using the above formula for the expected kill rate (E).
(§2) To produce a suitable preparation of active compound, 1 part by weight of active compound is mixed with the stated amounts of solvent and emulsifier, and the concentrate is diluted with emulsifier-containing water to the desired concentration.
Cabbage leaves (Brassica oleracea) are treated by being dipped into the preparation of active compound of the desired concentration and are populated with caterpillars of the cotton bollworm (Heliothis armigera) while the leaves are still moist.
(§3) After the desired period of time, the kill in % is determined. 100% means that all caterpillars have been killed; 0% means that none of the caterpillars have been killed. The determined kill rates are entered into Colby's formula (see sheet 1).

Experiment [2] concerns Phaedon cochleariae larvae. The experiment in a line: Phaedon cochleariae larvae test (cabbage leaf dip).
Excerpt: as §1
phaedon cochlearise Larvae Teast
as §2
Cabbage leaves (Brassica oleracea) are treated by being dipped into the preparation of active compound of the desired concentration and are populated with […] (Phaedon cochleariae) while the leaves are still moist.
as §3

The subject of experiment [3] is caterpillars of the beet armyworm (Spodoptera exigua). The experiment in a line: Spodoptera exigua test (cabbage leaf dip).
Excerpt: as §1
The produce a suitable preparation of active compound, 1 part by weight of active compound is mixed with the stated amounds of solvent and emulsifier, and the concentrate is diluted with emulsifier-containing water to the desired concentration. […]
After the desired period of time, the kill in % is determined. […] The determined kill rates are entered into Colby's formula (see sheet 1)

With `CC1(C)[C@H](C(=O)O[C@H](C#N)c2cccc(Oc3ccccc3)c2)[C@@H]1C=C(Br)Br` [deltamethrin], in experiment [1] (0.032 ppm), the “Kill in % after 3 d” value amounted to 10%. Besides, the “Kill in % after 6 d” value in experiment [2] (0.16 ppm) was 50%.

For the molecule `CC1(C)C(/C=C(\Cl)C(F)(F)F)C1C(=O)OC(C#N)c1cccc(Oc2ccccc2)c1` (stereo not drawn) [lambda-cyhalothrin], the “Kill in % after 3 d” value in experiment [2] (0.16 ppm) was 15%.

In the case of `CC1(C)C(C=C(Cl)Cl)C1C(=O)OCc1cccc(Oc2ccccc2)c1` (stereo not drawn) [permethrin], the “Kill in % after 6 d” value in experiment [1] (0.16 ppm) is 15%; in experiment [3] (0.16 ppm), 0%.

With `O=C(NC(=O)c1ccccc1Cl)Nc1ccc(OC(F)(F)F)cc1` [triflumuron], the “Kill in % after 3 d” value in experiment [1] (0.8 ppm) was 0%; in experiment [2] (4 ppm) it was 25% and 35%. Also, the results for the “Kill in % after 6 d” value in experiment [1] (4 ppm), in experiment [2] (4 ppm) and in experiment [3] (4 ppm) were 0%, 65% and 20%, respectively.

Regarding `CC1(C)C(C=C(Cl)Cl)C1C(=O)OC(C#N)c1ccc(F)c(Oc2ccccc2)c1` (stereo not drawn) [β-cyfluthrin], the “Kill in % after 6 d” value in experiment [1] (0.16 ppm) is 65%. For the same molecule, the “Kill in % after 3 d” value in experiment [2] (0.16 ppm) was determined as 15%.
